Data published in article PMC5571522, “Cryptotanshinone inhibition of mammalian target of rapamycin pathway is dependent on oestrogen receptor alpha in breast cancer” (Journal of Cellular and Molecular Medicine, 2017).
pEC50: −log10 of the molar value.

Target: T1, oestrogen receptor alpha (ERα) (Homo sapiens, UniProt P03372)
T1 construct: gene ESR1
Test: HitHunter Estrogen Assay Kit competitive binding (enzyme fragment complementation); supported by ERE-luciferase inhibition in MCF-7 cells

T1 sequence (P03372 whole entry): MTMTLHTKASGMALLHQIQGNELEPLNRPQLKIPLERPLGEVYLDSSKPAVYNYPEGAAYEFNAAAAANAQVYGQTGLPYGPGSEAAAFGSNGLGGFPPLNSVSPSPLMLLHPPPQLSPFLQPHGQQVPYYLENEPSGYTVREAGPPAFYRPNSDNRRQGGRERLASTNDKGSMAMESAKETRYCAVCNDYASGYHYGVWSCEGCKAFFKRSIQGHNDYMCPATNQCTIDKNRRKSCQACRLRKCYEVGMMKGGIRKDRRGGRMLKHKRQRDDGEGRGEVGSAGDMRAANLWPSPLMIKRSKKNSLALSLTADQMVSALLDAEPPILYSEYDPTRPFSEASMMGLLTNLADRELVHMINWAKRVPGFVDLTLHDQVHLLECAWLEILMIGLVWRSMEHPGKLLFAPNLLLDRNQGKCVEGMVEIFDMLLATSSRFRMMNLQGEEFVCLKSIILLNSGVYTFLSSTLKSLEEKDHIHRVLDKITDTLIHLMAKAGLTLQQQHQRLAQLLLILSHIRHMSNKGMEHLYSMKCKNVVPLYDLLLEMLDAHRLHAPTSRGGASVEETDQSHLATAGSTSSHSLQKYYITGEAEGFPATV

## C[C@H]1COC2=C1C(=O)C(=O)c1c2ccc2c1CCCC2(C)C [CPT, Cryptotanshinone]
  pEC50: ~8.01
